Assay results as given in US5736539A, “Inhibitors of farnesyl-protein transferase” (Merck & Co., Inc., priority 1995, dated 1998).
Counter-ions that a name gives are not always drawn.

What was measured:
[1] = biological target: Farnesyl-protein transferase (FPTase); experiment: In vitro inhibition of ras farnesyl transferase (Ras-CVLS, [3H]FPP); assay type: biochemical, bovine brain or recombinant human; settings: Ras-CVLS 3.5 μM, 0.25 μM [3H]FPP; partially purified bovine or recombinant human enzyme; read-out: IC50 (concentration of the test compound which gives 50% inhibition of FPTase)
Protocol: Ras-CVLS at 3.5 μM, 0.25 μM [^3 H]FPP, and the indicated compounds were incubated with either a partially purified bovine enzyme preparation or a recombinant human enzyme preparation.

[2] = tested on: Ras farnesylation in the v-ras cell line (viral Ha-ras p21); experiment: In vivo ras farnesylation assay (v-ras cell line, immunoprecipitation, percent inhibition of farnesyl transfer to protein); assay type: cell-based; settings: 4 h at 37° C. then additional 20 h labelling with [35S]methionine
Protocol: In vivo ras farnesylation assay
The cell line used in this assay was the v-ras line, which expressed viral Ha-ras p21. The assay was performed essentially as described in DeClue, J. E. et. al., Cancer Research 51,712-717, (1991). Cells in 10 cm dishes at 50-75% confluency were treated with the test compound (final concentration of solvent, methanol or dimethyl sulfoxide, was 0.1%). After 4 hours at 37° C., the cells were labelled in 3 ml methionine-free DMEM supplemeted with 10% regular DMEM, 2% fetal bovine serum and 400 μCi[^35 S]methionine (1000 Ci/mmol). After an additional 20 hours, the cells were lysed in 1 ml lysis buffer (1% NP40/20 mM HEPES, pH 7.5/5 mM MgCl2 /1 mM DTT/10 μg/ml aprotinen/2 μg/ml leupeptin/2 μg/ml antipain/0.5 mM PMSF) and the lysates cleared by centrifugation at 100,000×g for 45 min. Aliquots of lysates containing equal numbers of acid-precipitable counts were bought to 1 ml with IP buffer (lysis buffer lacking DTT) and immunoprecipitated with the ras-specific monoclonal antibody Y13-259 (Furth, M. E. et. al., J. Virol. 43, 294-304, (1982)). Following a 2 hour antibody incubation at 4° C., 200 μl of a 25% suspension of protein A-Sepharose coated with rabbit anti rat IgG was added for 45 min. The immunoprecipitates were washed four times with IP buffer ([…] HEPES, pH 7.5/1 mM EDTA/1% Triton X-100.0.5% deoxycholate/0.1%/SDS/0.1M NaCl) boiled in SDS-PAGE sample buffer and loaded on 13% acrylamide gels. When the dye front reached the bottom, the gel was fixed, soaked in Enlightening, dried and autoradiographed. The intensities of the bands corresponding to farnesylated and nonfarnesylated ras proteins were compared to determine the percent inhibition of farnesyl transfer to protein.

[3] = tested on: Ras farnesylation; settings: Hancock et al.; Casey et al.; Schafer et al., Science 245:379 (1989); cited from earlier work

Molecule | IC50 [1] [nM] | IC50 [2] [nM] | Inhibition of Ras farnesylation in vivo [3]
1-[2(R)-Amino-3-mercaptopropyl]-4-(1-naphthoyl)-2(S)-(3-methoxy-1-propyl)piperazine dihydrochloride [Example 18] | 1 | – | –
CCCC[C@H]1CN(C(=O)c2cccc(C)c2C)CCN1C[C@@H](N)CS [Example 3, 1-[2(R)-Amino-3-mercaptopropyl]-2(S)-n-butyl-4-(2,3-dimethylbenzoyl)piperazine dihydrochloride] | 6 | 5000 | –
Cc1cccc(C(=O)N2CCN(C[C@@H](N)CS)[C@@H](Cc3ccccc3)C2)c1C [Example 6, 1-[2(R)-Amino-3-mercaptopropyl]-2(S)-benzyl-4-(2,3-dimethylbenzoyl)piperazine dihydrochloride] | 4 | 500 to 1000 | –
COCC[C@H]1CN(C(=O)c2cccc(C)c2C)CCN1C[C@@H](N)CS [Example 7, 1-[2(R)-Amino-3-mercaptopropyl]-4-(2,3-dimethylbenzoyl)-2(S)-(2-methoxyethyl)piperazine dihydrochloride] | – | 500 to 1000 | –
CSCC[C@H]1CN(C(=O)c2cccc(C)c2C)CCN1C[C@@H](N)CS [Example 8, 1-[2(R)-Amino-3-mercaptopropyl]-4-(2,3-dimethylbenzoyl)-2(S)-(2-methylthioethyl)piperazine dihydrochloride] | 11 | 500 to 1000 | –
COCC[C@H]1CN(C(=O)c2cccc3ccccc23)CCN1C[C@@H](N)CS [Example 12, 1-[2(R)-Amino-3-mercaptopropyl]-4-(1-naphthoyl)-2(S)-(2-methoxyethyl)piperazine dihydrochloride] | 5 | 500 | –
CCCOCC[C@H]1CN(C(=O)c2cccc3ccccc23)CCN1C[C@@H](N)CS [Example 13, 1-[2(R)-Amino-3-mercaptopropyl]-2(S)-(2-(1-propoxy)ethyl)-4-(1-naphthoyl)piperazine dihydrochloride] | 3 | 500 | –
N[C@@H](CS)CN1CCN(C(=O)c2cccc3ccccc23)C[C@@H]1CCOCc1cccnc1 [Example 14, 1-[2(R)-Amino-3-mercaptopropyl]-2(S)-(2-(3-pyridylmethoxy)ethyl)-4-(1-naphthoyl)piperazine trihydrochloride] | 1 | – | –
CCCOCC[C@H]1CN(C(=O)c2cccc3cccnc23)CCN1C[C@@H](N)CS [Example 15, 1-[2(R)-Amino-3-mercaptopropyl]-2(S)-(2-(1-propoxy)ethyl)-4-(8-quinolinylcarbonyl)piperazine trihydrochloride] | 6 | – | –
CCCC[C@H]1CN(C(=O)c2cccc3ccccc23)CCN1C[C@@H](N)CS [Example 16, 1-[2(R)-Amino-3-mercaptopropyl]-2(S)-n-butyl-4-(1-naphthoyl)piperazine dihydrochloride] | 2 | 500 | –
CCCC[C@H]1CN(C(=O)c2cccc3c2OCC3)CCN1C[C@@H](N)CS [Example 17, 1-[2(R)-Amino-3-mercaptopropyl]-2(S)-n-butyl-4-[7-(2,3-dihydrobenzofuranoyl)]piperazine dihydrochloride] | 6 | 500 | –
CCCC[C@H]1CN(C(=O)c2cccc3cccnc23)CCN1C[C@@H](N)CS [Example 19, 1-(2(R)-Amino-3-mercaptopropyl)-2(S)-n-butyl-4-(8-quinolinylcarbonyl)piperazine trihydrochloride] | 5 | 1000 | –
COCC[C@H]1CN(C(=O)c2cccc3ccccc23)CCN1C[C@@H](N)CSSC[C@H](N)CN1CCN(C(=O)c2cccc3ccccc23)C[C@@H]1CCOC [Example 21, bis-1, 1'-[2(R)-Amino-3-(2(S)-(2-methoxyethyl)-4-naphthoyl-1-piperazinyl)]propyl disulfide tetrahydrochloride] | 1 | – | –
CC(=O)NCCCC[C@H]1CN(C(=O)c2cccc3ccccc23)CCN1C[C@@H](N)CS [Example 27, 1-[2(R)-Amino-3-mercaptopropyl]-4-(1-naphthoyl)-2(S)-(4-acetamidobutyl)piperazine dihydrochloride] | 3.5 | 500 | –
N[C@@H](CS)CN1CCCN(C(=O)c2cccc3ccccc23)CC1 [Example 28, 1-(2(R)-Amino-3-mercaptopropyl)-4-(1-naphthoyl)homopiperazine dihydrochloride] | 21 | 10000 | –
NC(CS)CN1CCN(C(=O)c2cccc3ccccc23)CC1C(=O)N1CCCCC1 [Example 30, 1-(2(R)-Amino-3-mercaptopropyl)-4-(1-naphthoyl)-2(S)-piperidylcarboxyl-4-piperazine dihydrochloride] | 3 | 500 | –
COC(=O)C1CN(C[C@@H](N)CS)CCN1Cc1cccc2ccccc12 (stereo partly drawn) [Example 31, Methyl 4-(2(R)-amino-3-mercaptopropyl)-l-(1-naphthylmethyl)piperazine-2-carboxylate hydrochloride] | 2.9 | 10000 | –
CC[C@H](C)C(=O)O[C@H]1CCC=C2C=C[C@H](C)[C@H](CC[C@@H]3C[C@@H](O)CC(=O)O3)[C@H]21 [compactin] | – | – | Inhibition of Ras farnesylation in vivo has been demonstrated
CC[C@H](C)C(=O)O[C@H]1C[C@@H](C)C=C2C=C[C@H](C)[C@H](CC[C@@H]3C[C@@H](O)CC(=O)O3)[C@H]21 [lovastatin] | – | – | Inhibition of Ras farnesylation in vivo has been demonstrated
